Measurements taken from ChEMBL document CHEMBL1857833, “Screening and optimization of specific chemical series against human African Trypanosomiasis (HAT)”.
In brackets after ≈: the same amount, converted by molar mass.

Key:
MDR1 (ABCB1) [1] = biological target: T1, MDR1 (ABCB1) (Homo sapiens, UniProt P08183); experiment: DNDI: % of compound recovered from apical to basolateral permeability assay in MDCK cells transfected with human MDR1 after 60 mins at a concentration of 3uM; type: ADME, cell-based, Canis lupus familiaris; conditions: dog
MDR1 (ABCB1) [2] = biological target: T1, MDR1 (ABCB1); experiment: DNDI: Efflux ratio for permeability from basolateral to apical side to apical to basolateral side of MDCK cells transfected with human MDR1; type: ADME, cell-based, Canis lupus familiaris; conditions: dog
MDR1 (ABCB1) [3] = biological target: T1, MDR1 (ABCB1); experiment: DNDI: Apparent permeability from apical to basolateral side of the MDCK cell transfected with human MDR1after 60 mins at a concentration of 3uM; type: ADME, cell-based, Canis lupus familiaris; conditions: dog, MDCK-MDR1
MDR1 (ABCB1) [4] = biological target: T1, MDR1 (ABCB1); experiment: DNDI: % of compound recovered from membrane of apical to basolateral permeability assay in MDCK cells transfected with human MDR1 after 60 mins at a concentration of 3uM in the presence of GF120918; type: ADME, cell-based, Canis lupus familiaris; conditions: dog, MDCK-MDR1, with GF120918 (concentration not stated); read-out: Mem Rec
[5] = DNDI: half-life in mouse S9 microsomes at a concentration of 1uM; type: ADME, subcellular, Liver, S9 fraction
Trypanosoma brucei [6] = experiment: DNDI: Inhibition of Human African Trypanosomiasis, SBRI 427, in vitro; type: functional, organism-based; conditions: Trypanosoma brucei, SBRI 427; read-out: IC50
[7] = DNDI: Lipophilicity measured in Chromatographic hydrophobicity index (CHI) assay, pH 7.4; type: physicochemical; conditions: buffer
[8] = DNDI: Solubility in phosphate buffered saline at pH7.4 measured by nephelometry at room temperature (NEPH-RT); type: physicochemical; conditions: pH 7.4
MDR1 (ABCB1) [9] = biological target: T1, MDR1 (ABCB1); experiment: DNDI: % of compound recovered from membrane of apical to basolateral permeability assay in MDCK cells transfected with human MDR1 after 60 mins at a concentration of 3uM; type: ADME, cell-based, Canis lupus familiaris; conditions: dog, read-out: Mem Rec
[10] = DNDI: Cytotoxicity against L929 mouse fibroblasts, 72 hour.; type: toxicity, cell-based; conditions: mouse, L929 mouse fibroblasts
MDR1 (ABCB1) [11] = biological target: T1, MDR1 (ABCB1); experiment: DNDI: % of compound recovered from apical to basolateral permeability assay in MDCK cells transfected with human MDR1 after 60 mins at a concentration of 3uM in the presence of GF120918; type: ADME, cell-based, Canis lupus familiaris; conditions: dog, MDCK-MDR1, with GF120918 (concentration not stated)
Trypanosoma brucei [12] = experiment: DNDI: Mean survival time in days (MSD) of mice after p.o. administration of Human African Trypanosomiasis (HAT), STIB 795, in vivo at 100 mg/kg/day for 4 days.; type: functional, Mus musculus; conditions: route oral
in vitro = conditions: mouse, liver microsomes, t (1 / 2)
Description: DNDI: half life in mouse liver microsomes at a concentration of 1uM

[13] = mouse, microsomes, 1 µM
Description: DNDI: in vitro intrinsic clearance in mouse liver microsomes at a concentration of 1uM

Trypanosoma brucei [14] = experiment: DNDI: Mean survival time in days (MSD) of mice after intraperitoneal injection of Human African Trypanosomiasis (HAT), STIB 795, in vivo at 50 mg/kg/day for 4 days.; type: functional, Mus musculus
Trypanosoma brucei [15] = experiment: DNDI: Mean survival time in days (MSD) of mice after intraperitoneal injection of Human African Trypanosomiasis (HAT), EATRO 110, in vivo at 5 mg/kg/day for 4 days.; type: functional, Mus musculus
Trypanosoma brucei [16] = experiment: DNDI: Mean survival time in days (MSD) of mice after intraperitoneal injection of Human African Trypanosomiasis (HAT), EATRO 110, in vivo at 20 mg/kg/day for 4 days.; type: functional, Mus musculus
Trypanosoma brucei [17] = experiment: DNDI: Mean survival time in days (MSD) of mice after intraperitoneal injection of Human African Trypanosomiasis (HAT), EATRO 110, in vivo at 12.5 mg/kg/day for 4 days.; type: functional, Mus musculus
[18] = DNDI: Cytotoxicity against L-6 rat myoblasts from skeletal muscle cells; type: toxicity, cell-based, L6; conditions: L-6 rat skeletal muscle myoblasts
[19] = DNDI: Solubility in phosphate buffered saline at pH7.4 measured by optical density (turbidimetry) at room temperature (OD-RT); type: physicochemical; conditions: pH 7.4
Leishmania donovani = experiment: DNDI: Inhibition of formation of Leishmania donovani (strain MHOM/ET/67/L82) axenic amastigotes, in vitro.; type: functional, organism-based
[20] = DNDI: in vitro intrinsic clearance in human liver microsomes at a concentration of 10uM; type: ADME, Microsome
Trypanosoma brucei [21] = experiment: DNDI: Mean survival time in days (MSD) of mice after intraperitoneal injection of Human African Trypanosomiasis (HAT), EATRO 110, in vivo at 2.5 mg/kg/day for 4 days.; type: functional, Mus musculus
[22] = DNDI: in vitro intrinsic clearance in mouse liver microsomes at a concentration of 10uM; type: ADME, Microsome; conditions: read-out: CLint in vitro
Plasmodium falciparum = experiment: DNDI: Inhibition of the malaria parasite Plasmodium falciparum, in vitro; type: functional, organism-based; conditions: K1
[23] = DNDI: Cytotoxicity against L929 mouse fibroblasts, CYTO-SP, 24 hour; type: toxicity, cell-based; conditions: mouse, L929 mouse fibroblasts
[24] = DNDI: half life in human liver microsomes at a concentration of 10uM; type: ADME, Microsome
[25] = tested on: Trypanosoma brucei rhodesiense; experiment: DNDI: Inhibition of Human African Trypanosomiasis (HAT), STIB 900, in vitro; type: functional, organism-based
Trypanosoma cruzi = experiment: DNDI: Inhibition of Chagas Disease parasite Trypanosoma cruzi (Tulahuen LacZ, Clone C4), in vitro.; type: functional, organism-based
Trypanosoma brucei [26] = experiment: DNDI: Mean survival time in days (MSD) of mice after intraperitoneal injection of Human African Trypanosomiasis (HAT), EATRO 110, at 0.5 mg/kg/day for 4 days.; type: functional, Mus musculus
[27] = DNDI: half life in mouse liver microsomes at a concentration of 10uM; type: ADME, Microsome
Trypanosoma brucei [28] = experiment: DNDI: Mean survival time in days (MSD) of mice after intraperitoneal injection of Human African Trypanosomiasis (HAT), EATRO 110, in vivo at 1.25 mg/kg/day for 4 days.; type: functional, Mus musculus
Trypanosoma brucei [29] = experiment: DNDI: Inhibition of Human African Trypanosomiasis, EATRO 110, in vitro; type: functional, organism-based
MDR1 (ABCB1) [30] = biological target: T1, MDR1 (ABCB1); experiment: DNDI: Apparent permeability from apical to basolateral side of the MDCK cell transfected with human MDR1; type: ADME, cell-based, Canis lupus familiaris; conditions: dog
MDR1 (ABCB1) [31] = biological target: T1, MDR1 (ABCB1); experiment: DNDI: Apparent permeability from basolateral to apical side of the MDCK cell transfected with human MDR1 after 60 mins at a concentration of 3uM; type: ADME, cell-based, Canis lupus familiaris; conditions: dog
MDR1 (ABCB1) [32] = biological target: T1, MDR1 (ABCB1); experiment: DNDI: % of compound recovered from apical to basolateral permeability assay in MDCK cells transfected with human MDR1; type: ADME, cell-based, Canis lupus familiaris; conditions: dog
MDR1 (ABCB1) [33] = biological target: T1, MDR1 (ABCB1); experiment: DNDI: % of compound recovered from basolateral to apical permeability assay in MDCK cells transfected with human MDR1; type: ADME, cell-based, Canis lupus familiaris; conditions: dog

T1 sequence (P08183 whole entry): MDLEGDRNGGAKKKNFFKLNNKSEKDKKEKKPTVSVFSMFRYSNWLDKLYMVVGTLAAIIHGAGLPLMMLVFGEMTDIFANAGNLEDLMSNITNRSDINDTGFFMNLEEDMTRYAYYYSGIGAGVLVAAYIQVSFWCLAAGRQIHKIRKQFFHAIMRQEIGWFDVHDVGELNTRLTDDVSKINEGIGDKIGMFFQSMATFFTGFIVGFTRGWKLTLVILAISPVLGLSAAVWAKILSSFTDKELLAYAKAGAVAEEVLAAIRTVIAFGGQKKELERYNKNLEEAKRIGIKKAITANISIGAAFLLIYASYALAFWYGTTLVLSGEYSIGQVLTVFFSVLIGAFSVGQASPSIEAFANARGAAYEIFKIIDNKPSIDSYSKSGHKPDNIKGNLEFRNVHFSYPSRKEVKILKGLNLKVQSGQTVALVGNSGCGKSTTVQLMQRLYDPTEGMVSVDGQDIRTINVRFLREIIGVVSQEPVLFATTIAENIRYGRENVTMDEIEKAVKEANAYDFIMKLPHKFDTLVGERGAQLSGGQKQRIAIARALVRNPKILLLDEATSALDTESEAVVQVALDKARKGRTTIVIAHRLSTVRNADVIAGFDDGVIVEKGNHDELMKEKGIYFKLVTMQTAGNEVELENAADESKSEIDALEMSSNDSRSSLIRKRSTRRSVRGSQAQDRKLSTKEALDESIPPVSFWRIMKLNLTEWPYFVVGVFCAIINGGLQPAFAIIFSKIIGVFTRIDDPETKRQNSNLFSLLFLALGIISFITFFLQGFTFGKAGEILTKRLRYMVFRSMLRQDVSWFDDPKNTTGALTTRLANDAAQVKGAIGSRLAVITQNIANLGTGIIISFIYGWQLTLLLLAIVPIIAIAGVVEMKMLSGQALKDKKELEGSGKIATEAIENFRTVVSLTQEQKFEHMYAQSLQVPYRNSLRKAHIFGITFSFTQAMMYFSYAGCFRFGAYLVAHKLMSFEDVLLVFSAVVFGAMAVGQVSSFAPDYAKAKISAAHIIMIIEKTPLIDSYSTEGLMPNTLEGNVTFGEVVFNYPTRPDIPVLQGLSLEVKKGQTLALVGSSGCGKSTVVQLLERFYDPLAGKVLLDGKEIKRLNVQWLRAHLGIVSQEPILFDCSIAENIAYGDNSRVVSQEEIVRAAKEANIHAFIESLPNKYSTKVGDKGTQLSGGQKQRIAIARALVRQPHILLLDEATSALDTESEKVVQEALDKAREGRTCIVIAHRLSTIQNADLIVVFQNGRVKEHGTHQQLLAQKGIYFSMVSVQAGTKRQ

Row | Compound | IC50 (Trypanosoma brucei [6]) [µg/mL] | chromatographic logD [7] | solubility kinetic [8] [µM] | IC50 at 72 h [10] [µg/mL] | half-life at 1 µM (in vitro) [min] | CLint in vitro [13] [µL/min/mg] | MSD (Trypanosoma brucei [15]) [days] | MSD (Trypanosoma brucei [16]) [days] | MSD (Trypanosoma brucei [17]) [days] | solubility kinetic [19] [µM] | MSD (Trypanosoma brucei [21]) [days] | microsomal CLint at 10 µM [22] [µL/min/mg] | IC50 at 24 h [23] [µg/mL] | MSD (Trypanosoma brucei [26]) [days] | half-life at 10 µM [27] [min] | MSD (Trypanosoma brucei [28]) [days] | further results
1 | CC(C)(C)c1cc(N2CCNCC2)n2nc(-c3ccc(F)cc3)cc2n1 | 1.11 (≈ 3.14 µM) | 4.15 | 50 (≈ 17.7 µg/mL) | 2.75 (≈ 7.78 µM) |  |  |  |  |  |  |  |  |  |  |  |  | recovery at 1 h, 3 µM (MDR1 (ABCB1) [1]): 103%; efflux ratio (MDR1 (ABCB1) [2]; MDCK-MDR1, read-out: Calculated Ratio): 0.08; Papp A→B at 1 h, 3 µM (MDR1 (ABCB1) [3]): 10.3 ×10⁻⁶ cm/s; recovery at 1 h, 3 µM (MDR1 (ABCB1) [4]): 76.1%; half-life at 1 µM [5]: > 350 min; recovery at 1 h, 3 µM (MDR1 (ABCB1) [9]): 88.4%; recovery at 1 h, 3 µM (MDR1 (ABCB1) [11]): 91%
2 | CCCCc1ccc(-c2nc(CNCCCN(C)C)co2)cc1 | 0.07 (≈ 0.222 µM) | 5.07 | < 1 | 1.4 (≈ 4.44 µM) | 96 | 9 |  |  |  |  |  |  |  |  |  |  | MSD (Trypanosoma brucei [12]): 7 days; MSD (Trypanosoma brucei [14]): 7 days
3 | COc1ccc(/C(=N/O)NC2CCCCC2)cc1 | 0.61 (≈ 2.46 µM) | 3.82 |  | > 10 | 3 | 329 | 4.3 | 4.6 | 4 | 50 (≈ 12.4 µg/mL) | 4 | 544 | > 50 | 4 | 5 | 4 | IC50 [18]: 58.3 µg/mL (≈ 235 µM); IC50 (Leishmania donovani): 11.9 µg/mL (≈ 48 µM); CLint in vitro [20]: 38 µL/min/mg; IC50 (Plasmodium falciparum): 4.7 µg/mL (≈ 18.9 µM); half-life at 10 µM [24]: 76 min; IC50 [25]: 18.3 µg/mL (≈ 73.7 µM); IC50 (Trypanosoma cruzi): > 30 µg/mL
4 | COc1ccccc1Oc1ncccc1/C(=N\O)NC1CCCCC1 | 0.78 (≈ 2.28 µM) | 3.77 |  |  |  |  | 4 | 4.3 | 4 | 25 (≈ 8.54 µg/mL) | 4 | 138 | > 50 | 4 | 21 | 4 | IC50 (Trypanosoma brucei [29]): 1.56 µg/mL (≈ 4.57 µM); efflux ratio (MDR1 (ABCB1) [2]; read-out: B-A/A-B): 2.6; Papp A→B (MDR1 (ABCB1) [30]): 18.4 ×10⁻⁶ cm/s; Papp B→A at 1 h, 3 µM (MDR1 (ABCB1) [31]): 48.3 ×10⁻⁶ cm/s; recovery (MDR1 (ABCB1) [32]): 77%; recovery (MDR1 (ABCB1) [33]): 84%
